Source: patent US20200077655A1, “Use of an Acyclic Picolinamide Compound as a Fungicide for Control of Phytopathogenic Fungi in Orchard, Vineyard and Plantation Crops” (Dow AgroSciences LLC, priority 2017, published 2020)

Legend:
Assay type in all cases: in vivo
[1] = test system: Monilinia fructicola (MONIFC); assay: Field microplot assessment on brown rot on apricots; conditions: field grown apricots
Source text: (§1) A field trial assessing the utility of Compound I on rot diseases of stone fruits was done using apricots in a microplot method, part of an experimental trial designed as a randomized complete block with four replications. In a microplot method, two mature fruits on a single branch or cluster of fruits were selected for each replication (for a total of 10 replications) instead of using an entire replication. Colored flagging identified treatments. Fungicidal treatments containing Compound I, applied in a 5% EC formulation and tank mixed with an adjuvant (Trycol, 50% w/w at 0.2% v/v), were sprayed on apricots (PRNAR) at rates of 50, 100, and 150 grams of active ingredient per hectare (g ai/ha). The applications to the selected mature apricots were done at 7 days before harvest using a hand held manual spray bottle at a water volume of 500 L/ha. One day after application, a ZipLoc plastic bag was placed over the fruit or fruit cluster and an inoculation mix of MONIFC (Rhizopus was from natural population present in the orchard) was sprayed inside covering the fruits. The plastic bags were removed after 24 hours. At harvest, the fruits were collected in the field and placed in plastic Tupperware containers. 150 mL of de-ionized water was poured in the bottom of the Tupperware containers and the fruits were sprayed with a light mist of water. The containers were brought to the lab, enclosed in a large trash bag to keep the humidity high, and incubated on a lab bench at approximately 23° C. Visual disease incidence was assessed during the trial at 9 and 16 days after application. Area under the disease progress curve (AUDPC) was calculated for each plot using the sets of recorded incidence data. Relative AUDPC (% control based on AUDPC) was calculated as percent of the nontreated control.

[2] = test system: Rhizopus stolonifer (RIZPST); assay: Field microplot assessment on Rhizopus rot on apricots; conditions: field grown apricots
Source text: as §1

[3] = test system: Monilinia fructicola (MONIFC); assay: Field microplot assessment on brown rot on peaches; conditions: field grown peaches, 17 days after first application
Source text: A field trial assessing the utility of Compound I on rot diseases of stone fruits was also done on peaches using a microplot method, part of an experimental trial designed as a randomized complete block with four replications. In a microplot method, two mature fruits on a single branch or cluster of fruits were selected for each replication (for a total of 10 replications) instead of using an entire replication. Colored flagging identified treatments. One day before the first application, a ZipLoc plastic bag was placed over the fruit or fruit cluster and an inoculation mix of MONIFC was sprayed inside covering the fruits. The plastic bags were removed after 24 hours. After 24 hr, fungicidal treatments containing Compound I, applied in a 5% EC formulation and tank mixed with an adjuvant (Trycol, 50% w/w at 0.2% v/v), were then sprayed twice on peaches (PRNPS) at rates of 50, 100, and 150 grams of active ingredient per hectare (g ai/ha). The applications to the selected mature peaches were done at 14 and 7 days before harvest using a CO2 powered inoculation spray gun at a water volume of 500 L/ha. At harvest, the fruits were collected in the field and placed in plastic Tupperware containers. 150 mL of de-ionized water was poured in the bottom of the Tupperware containers and the fruits were sprayed with a light mist of water. The containers were brought to the lab, enclosed in a large trash bag to keep the humidity high, and incubated on a lab bench at approximately 23° C. The percentage of visual disease incidence and severity was assessed during the trial at 17 days after the first application.

[4] = test system: Botrytis cinerea (BOTRCI); assay: Field assessment of gray mold on grapevine
Source text: On grapevine: A fungicidal treatment containing Compound I, applied in a 5% EC formulation and tank mixed with an adjuvant (Trycol, 50% w/w at 0.2% v/v), was sprayed only on the bunch portion of grape plants (VITVI, Pinot grey variety) at rates of 50, 150 and 200 grams of active ingredient per hectare (g ai/ha). The trial was based on two applications 28 days apart in open field conditions with disease inoculation 3 days after the last application (plant growth stage B83). The treatment was part of an experimental trial designed as a randomized complete block with four replications and a plot of approximately 2.5×7.0 m. Formulations of compound I were applied at water volume of 500 L/ha (bunches only), using a backpack plot sprayer ([…], Solo 433; Airatom nozzle). Disease severity was recorded as a percentage of incidence and infection of damaged bunches on a random sample of 100 bunches per plot. Gray mold infection was assessed three times, the first at 22 days after the last application (22DAAB), the second and third at 28DAAB and 36DAAB. Area under the disease progress curve (AUDPC) was calculated for each plot using the sets of recorded severity data. Relative AUDPC (% control based on AUDPC) was calculated as percent of the nontreated control.

[5] = test system: Cladosporium caryigenum (CLADCA); assay: Field assessment of two trials for pecan nut scab
Source text: A fungicidal treatment containing Compound I, applied in an SC formulation (MSO built-in) and tank mixed with an adjuvant (Agnique BP-420, 50% w/w at 0.2% v/v or Adsee C80W 80%), was sprayed on pecan trees (CYAIL, Desirable variety) from pre-flowering up to nut hardening at rates of 60, 120, 150, and 180 g ai/ha. The experimental plots were run with natural infestation. The treatment was part of an experimental trial designed as a randomized complete block (RCB) with four replications and a plot of approximately 40×40 ft, respectively. In one test, compound I was applied in 9 applications at water volume of 94-115 gallons per acre (gal/acre), using an Airblast sprayer (Hollowcone solid disc D10/45 nozzles) and pressurized at 46-54 psi. In the second test, compound I was applied in 8 applications at water volume of […] sprayer (solid stream nozzle) and pressurized at 300 psi. Both trials targeted 14 day intervals for applications.
Disease evaluations were made as % incidence and % severity nuts in one test, 3 evaluations each, 9 applications, and as % incidence nuts and % severity leaves in the second test, 2 and 3 evaluations, respectively, 8 applications. Area under the disease progress curve (AUDPC) was calculated for each plot using the sets of recorded severity and incidence data. Relative AUDPC (% control based on AUDPC) was calculated as percent of the untreated control.

Compound: COc1ccnc(C(=O)N[C@@H](C)C(=O)O[C@@H](C)C(c2ccc(F)cc2)c2ccc(F)cc2)c1OC(C)=O [Compound I, (S)-1,1-bis(4-fluorophenyl)propan-2-yl (3-acetoxy-4-methoxypicolinoyl)-L-alaninate]
- Percent control (AUDPC) from fruit incidence, MONIFC ([1]; 50 g ai/ha): B (51-75)
- Percent control (AUDPC) from fruit incidence, MONIFC ([1]; 100 g ai/ha): B (51-75)
- Percent control (AUDPC) from fruit incidence, MONIFC ([1]; 150 g ai/ha): B (51-75)
- Percent control (AUDPC) from fruit incidence, RIZPST ([2]; 50 g ai/ha): B (51-75)
- Percent control (AUDPC) from fruit incidence, RIZPST ([2]; 100 g ai/ha): C (26-50)
- Percent control (AUDPC) from fruit incidence, RIZPST ([2]; 150 g ai/ha): C (26-50)
- MONIFC, percentage of area affected on peaches (Severity) ([3]; 50 g ai/ha): 87.3%
- MONIFC, percentage of area affected on peaches (Severity) ([3]; 100 g ai/ha): 57.0%
- MONIFC, percentage of area affected on peaches (Severity) ([3]; 150 g ai/ha): 69.5%
- Percent control (AUDPC) from fruit infection assessments ([4]; 50 g ai/ha): B (51-75)
- Percent control (AUDPC) from fruit infection assessments ([4]; 150 g ai/ha): A (76-100)
- Percent control (AUDPC) from fruit infection assessments ([4]; 200 g ai/ha): A (76-100)
- Calc Percent Control of CLADCA (AUDPC) ([5]; 60 g ai/ha, Agnique BP420, 240 mL/ha): 25.1%
- Calc Percent Control of CLADCA (AUDPC) ([5]; 60 g ai/ha, MSO, 120 g ai/ha): 29.8%
- Calc Percent Control of CLADCA (AUDPC) ([5]; 120 g ai/ha, Adsee C80W 80%, 300 g ai/ha): 21.9%
- Calc Percent Control of CLADCA (AUDPC) ([5]; 120 g ai/ha, Agnique BP420, 480 mL/ha): 28.8%
- Calc Percent Control of CLADCA (AUDPC) ([5]; 120 g ai/ha, MSO, 240 g ai/ha): 30.1%
- Calc Percent Control of CLADCA (AUDPC) ([5]; 150 g ai/ha, Agnique BP420, 600 mL/ha): 35.0%
- Calc Percent Control of CLADCA (AUDPC) ([5]; 150 g ai/ha, MSO, 300 g ai/ha): 29.8%
- Calc Percent Control of CLADCA (AUDPC) ([5]; 180 g ai/ha, Agnique BP420, 720 mL/ha): 32.5%
- Calc Percent Control of CLADCA (AUDPC) ([5]; 180 g ai/ha, MSO, 360 g ai/ha): 53.0%
